Here are results for 8 molecules from patent publication US20120189566A1 (DAIICHI FINE CHEMICAL CO., LTD., priority 2009, published 2012).

The nature of data set [1]: pH stability of pantethine-4′,4″-diphosphate, pantethine-4′-phosphate and pantethine (Example 2). It is filed as physicochemical. To be noted: pH 4 or lower, or pH 7 or higher; 0.1% (w/v) in 50 mM buffer, 40° C. for 3 months; diphosphate tested as sodium salt.
Data set [2] can be described thus: pH stability of barium pantethine-4′,4″-diphosphate, pantethine and calcium pantetheine-5-sulfonate (Example 1). The following applies: 0.1% (w/v) in 50 mM buffer, 40° C. for 6 months, diphosphate tested as barium salt.
Source text: Sodium citrate buffer solutions were used as buffer solutions at pH 3, 4, 5 and 6. Sodium phosphate buffer solutions were used as buffer solutions at pH 6.5 and 7. Tris-HCl buffer solutions were used as buffer solutions at pH 8 and 9.5.
Data set [3] relates to LabCyte MELANO-MODEL, human skin three-dimensional model containing melanocytes. Put plainly: Melanin production inhibition test in human skin three-dimensional model. The format is cell-based. The following applies: for IC50: read-out: concentration at which melanin production inhibition rate reaches 50%, from plots in FIG. 5, kojic acid 0.1% = 100% inhibition, PBS = 0%. On the procedure: The culture medium and the applied sample solution were exchanged every 2 or 3 days. After the completion of the culture, the percentage of viable cells was measured by an MTT (methylthiazole tetrazolium) assay. Further, a melanin amount was measured.
Melanin amount: The skin cells after the MTT assay were immersed in a reagent obtained by dissolving 1% SDS, 0.05 mM EDTA, and a 10 mM tris-HCl buffer solution (pH 7.2). 3 μL of a 5 mg/mL Proteinase K was added and the solution was heated in a water bath at 45° C. overnight to dissolve the skin. A 30% hydrogen peroxide solution and a 500 mM sodium carbonate solution were added thereto, the solution was mixed well and heated in a water bath at 80° C. for 30 min, and impurities were removed by chloroform/methanol (2/1). At the same time, melanin solutions were prepared by similar operations to prepare a calibration curve, and a melanin amount in the cultured skin cells was determined.

The nature of data set [4]: Stability of pantetheine-4′-phosphate, pantetheine and pantethine (Example 4). To be noted: 40° C. for 1 month; for amount of disulfide produced from the compound: alkaline condition (pH 8 and pH 9.5).
Procedure: Fifty mM sodium citrate buffer solutions (pH 3, 4, 5, and 6), a 50 mM sodium phosphate buffer solution (pH 7), and 50 mM tris-HCl buffer solutions (pH 8, 9.5) containing 0.1% (w/v) of pantetheine-4′-phosphate were prepared. Each 0.4 mL of the solutions was encapsulated in a 1 mL-glass ampule and heated at 40° C. for 1 month. Samples before and after the heating were analyzed by an HPLC to measure the content of pantetheine-4′-phosphate.
Where [5] appears, read: ratio of 50% inhibition concentrations.

As to `CC(C)(COP(=O)(O)O)[C@@H](O)C(=O)NCCC(=O)NCCSSCCNC(=O)CCNC(=O)[C@H](O)C(C)(C)COP(=O)(O)O` [Pantethine-4′,4″-diphosphate, pantethine-4′,4″-diphosphate], the “stability (content by HPLC before and after heating)” value in data set [1] is given as “stable”. Take `CC(C)(CO)[C@@H](O)C(=O)NCCC(=O)NCCSS(=O)(=O)[O-].CC(C)(CO)[C@@H](O)C(=O)NCCC(=O)NCCSS(=O)(=O)[O-].[Ca+2]` [calcium pantetheine-5-sulfonate]: the “stability (content by HPLC before and after heating)” value in data set [2] (between pH 5 and 6) is given as “stable”; in data set [2] (pH 4 or lower, or pH 6.5 or higher) it was “clearly degraded”.

Consider `O=c1cc(CO)occ1O` [kojic acid], for which the “melanin production amount, relative to the case where only PBS was added” value in data set [3] (0.1% (7 mM), culture for 2 weeks) was found to be 30%. In the case of `CC(C)(COP(=O)(O)O)[C@@H](O)C(=O)NCCC(=O)NCCS` [pantetheine-4′-phosphate], the “amount of disulfide produced from the compound” value in data set [4] is reported as “did not decrease”. For the same molecule, in data set [4] (pH 3 and 4, 0.1% (w/v) in 50 mM buffer), the “stability (content by HPLC before and after heating)” value is “improved from pantetheine”. The “stability: oxidation to the disulfide” value in data set [4] (pH 5 or higher, 0.1% (w/v) in 50 mM buffer) is “oxidized and changed to pantethine-4′,4″-diphosphate”. Also, the “stability: remaining compound” value in data set [4] (pH 7 or higher, 0.1% (w/v) in 50 mM buffer) is given as “neither the pantetheine-4′-phosphate nor pantetheine remained”.

In the case of `CC(C)(CO)[C@@H](O)C(=O)NCCC(=O)NCCS` [pantetheine], in data set [4], the “amount of disulfide produced from the compound” value is on record as “decrease in the amount of pantethine produced”. In the case of `O=C1O[C@H]([C@@H](O)CO)C(O)=C1OP(=O)(O)O` [sodium ascorbyl-2-phosphate], in data set [3] (culture for 2 weeks), the IC50 amounted to 54 mM. Still for that read-out and setting: with pantethine-4′,4″-di-β-galactoside the figure was 77 mM. For the molecule sodium pantethine-4′,4″-diphosphate, in data set [3] (setting [5]), the “whitening activity relative to pantethine” value was determined as 1.7 fold and the “whitening activity relative to sodium ascorbyl-2-phosphate” value was found to be 17 times. For the same molecule, the IC50 in data set [3] (culture for 2 weeks) came out at 3.1 mM.
